Holding throughout (settings): 500 mM ethanol, 0.5 mM acetyl-CoA, pH 7.4, 30 °C
For one experiment, the target named is T1, Atf-S.l (Solanum lycopersicum, UniProt Q6QLX4).
T1 construct: gene AAT1; C-terminal GFP fusion (reporter); expressed in S. cerevisiae (pYSLG) and E. coli BL21(DE3) (pSLG); N-terminus from primer MANILPI
T1 sequence (Q6QLX4 1-442): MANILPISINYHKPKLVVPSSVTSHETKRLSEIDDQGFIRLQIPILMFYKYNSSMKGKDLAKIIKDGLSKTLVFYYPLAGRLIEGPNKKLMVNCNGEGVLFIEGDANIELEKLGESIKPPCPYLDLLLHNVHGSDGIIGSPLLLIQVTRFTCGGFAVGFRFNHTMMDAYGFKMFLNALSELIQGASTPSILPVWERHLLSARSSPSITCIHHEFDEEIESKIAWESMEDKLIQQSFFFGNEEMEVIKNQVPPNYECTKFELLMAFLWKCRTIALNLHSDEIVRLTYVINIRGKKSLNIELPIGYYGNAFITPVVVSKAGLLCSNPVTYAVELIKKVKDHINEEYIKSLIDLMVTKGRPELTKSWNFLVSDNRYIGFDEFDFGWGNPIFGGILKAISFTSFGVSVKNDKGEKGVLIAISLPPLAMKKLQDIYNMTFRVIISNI
In words: headspace GC of ethyl acetate, whole cell lysate. The class given is biochemical.

Another experiment concerns the target T2, Atf1-S.c (Saccharomyces cerevisiae, UniProt P40353).
T2 sequence (P40353 1-525): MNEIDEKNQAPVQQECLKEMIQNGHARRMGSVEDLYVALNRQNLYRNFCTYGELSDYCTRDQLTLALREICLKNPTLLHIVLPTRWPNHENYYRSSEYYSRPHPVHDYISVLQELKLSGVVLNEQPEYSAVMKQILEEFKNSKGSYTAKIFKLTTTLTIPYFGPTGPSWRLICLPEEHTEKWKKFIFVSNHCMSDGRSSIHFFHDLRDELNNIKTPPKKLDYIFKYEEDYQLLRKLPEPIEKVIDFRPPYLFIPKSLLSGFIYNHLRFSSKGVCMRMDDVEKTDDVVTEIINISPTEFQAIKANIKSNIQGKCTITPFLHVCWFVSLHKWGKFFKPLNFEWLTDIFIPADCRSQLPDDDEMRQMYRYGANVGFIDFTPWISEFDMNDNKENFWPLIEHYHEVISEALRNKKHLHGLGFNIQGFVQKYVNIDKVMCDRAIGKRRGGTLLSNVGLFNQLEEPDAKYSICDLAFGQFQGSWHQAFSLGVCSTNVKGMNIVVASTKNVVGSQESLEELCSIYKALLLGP

A further experiment concerns the target T3, Atf-P.a (Hansenula anomala, UniProt H6UWN0).
T3 construct: gene WAN_10494; C-terminal GFP fusion (reporter); expressed in S. cerevisiae (pYPAG) and E. coli BL21(DE3) (pPAG)
T3 sequence (H6UWN0 1-427): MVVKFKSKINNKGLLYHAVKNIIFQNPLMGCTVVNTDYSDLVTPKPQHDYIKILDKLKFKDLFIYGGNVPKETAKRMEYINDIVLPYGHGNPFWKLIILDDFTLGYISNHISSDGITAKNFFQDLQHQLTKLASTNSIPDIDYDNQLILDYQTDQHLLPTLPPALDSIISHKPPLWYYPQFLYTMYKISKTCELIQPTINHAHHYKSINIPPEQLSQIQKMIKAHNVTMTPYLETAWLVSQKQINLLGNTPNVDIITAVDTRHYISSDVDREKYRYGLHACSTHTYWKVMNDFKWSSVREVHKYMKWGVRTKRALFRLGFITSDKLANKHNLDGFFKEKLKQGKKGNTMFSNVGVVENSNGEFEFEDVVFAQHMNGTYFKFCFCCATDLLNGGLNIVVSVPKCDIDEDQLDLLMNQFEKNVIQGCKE
Nature of the experiment: headspace GC of ethyl acetate, whole cell lysate. Type of experiment: biochemical.

The target of another experiment is T4, Atf-S.p (Saccharomyces pastorianus, UniProt Q12678).
T4 construct: gene ATF1_2; C-terminal GFP fusion (reporter); expressed in S. cerevisiae (pYSPG) and E. coli BL21(DE3) (pSPG)
T4 sequence (Q12678 1-545): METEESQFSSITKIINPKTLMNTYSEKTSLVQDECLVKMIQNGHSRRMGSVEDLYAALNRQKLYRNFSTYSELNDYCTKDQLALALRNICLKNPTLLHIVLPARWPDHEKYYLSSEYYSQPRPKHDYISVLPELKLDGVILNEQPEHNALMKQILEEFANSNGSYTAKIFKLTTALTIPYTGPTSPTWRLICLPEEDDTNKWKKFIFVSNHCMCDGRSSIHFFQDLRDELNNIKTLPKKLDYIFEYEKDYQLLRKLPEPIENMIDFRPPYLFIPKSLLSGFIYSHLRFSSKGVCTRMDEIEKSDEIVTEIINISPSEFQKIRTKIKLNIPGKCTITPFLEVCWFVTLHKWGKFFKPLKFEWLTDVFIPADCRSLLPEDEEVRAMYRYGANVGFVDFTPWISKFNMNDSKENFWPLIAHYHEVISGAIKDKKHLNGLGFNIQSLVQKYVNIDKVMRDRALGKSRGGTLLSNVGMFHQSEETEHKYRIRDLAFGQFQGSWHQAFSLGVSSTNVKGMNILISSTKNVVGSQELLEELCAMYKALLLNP
In words: headspace GC of ethyl acetate, whole cell lysate. Type of experiment: biochemical.

A further experiment concerns the target T5, Atf2-S.c (Saccharomyces cerevisiae, UniProt P53296).
T5 sequence (P53296 1-535): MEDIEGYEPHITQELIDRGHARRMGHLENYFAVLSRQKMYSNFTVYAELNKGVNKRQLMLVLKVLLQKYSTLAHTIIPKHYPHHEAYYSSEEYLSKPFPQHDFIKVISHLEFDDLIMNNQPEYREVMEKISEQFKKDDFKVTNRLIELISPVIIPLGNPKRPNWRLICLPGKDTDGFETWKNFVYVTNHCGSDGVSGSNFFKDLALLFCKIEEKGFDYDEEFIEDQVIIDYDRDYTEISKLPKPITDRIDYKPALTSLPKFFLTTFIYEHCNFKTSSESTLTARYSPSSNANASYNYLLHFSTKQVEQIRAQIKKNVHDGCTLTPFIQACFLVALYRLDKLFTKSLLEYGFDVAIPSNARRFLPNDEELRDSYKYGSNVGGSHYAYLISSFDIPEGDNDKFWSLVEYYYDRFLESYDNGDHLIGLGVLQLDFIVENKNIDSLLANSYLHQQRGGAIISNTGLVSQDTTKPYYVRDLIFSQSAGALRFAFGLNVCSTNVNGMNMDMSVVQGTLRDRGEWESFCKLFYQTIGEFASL

In the next experiment the target is T6, Atf-K.l (Kluyveromyces lactis, UniProt Q6CJX7).
T6 construct: gene KLLA0_F15202g; C-terminal GFP fusion (reporter); expressed in S. cerevisiae (pYKLG) and E. coli BL21(DE3) (pKLG)
T6 sequence (Q6CJX7 1-517): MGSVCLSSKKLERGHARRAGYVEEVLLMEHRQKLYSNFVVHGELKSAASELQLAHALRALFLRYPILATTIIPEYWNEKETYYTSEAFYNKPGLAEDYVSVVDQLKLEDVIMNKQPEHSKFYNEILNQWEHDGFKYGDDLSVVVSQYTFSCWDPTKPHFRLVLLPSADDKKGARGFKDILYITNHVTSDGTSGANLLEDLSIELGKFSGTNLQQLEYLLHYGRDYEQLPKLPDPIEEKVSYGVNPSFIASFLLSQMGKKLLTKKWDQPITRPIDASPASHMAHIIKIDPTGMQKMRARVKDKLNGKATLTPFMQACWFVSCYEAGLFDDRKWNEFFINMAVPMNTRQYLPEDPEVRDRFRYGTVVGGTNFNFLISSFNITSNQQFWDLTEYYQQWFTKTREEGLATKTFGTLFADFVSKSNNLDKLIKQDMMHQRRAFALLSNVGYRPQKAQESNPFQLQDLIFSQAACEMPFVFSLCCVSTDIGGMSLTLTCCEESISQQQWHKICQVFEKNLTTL
Nature of the experiment: headspace GC of ethyl acetate, whole cell lysate. The class given is biochemical.

As to `CC(=O)SCCNC(=O)CCNC(=O)[C@H](O)C(C)(C)COP(=O)(O)OP(=O)(O)OC[C@H]1O[C@@H](n2cnc3c(N)ncnc32)[C@H](O)[C@@H]1OP(=O)(O)O` [acetyl-CoA], the “headspace GC of ethyl acetate, whole cell lysate” value at Atf-S.l was “AATase activity was measured using ethanol and acetyl-CoA as substrates”; on Atf1-S.c it was “AATase activity was measured using ethanol and acetyl-CoA as substrates”; on Atf-P.a, “AATase activity was measured using ethanol and acetyl-CoA as substrates”; at Atf-S.p, “AATase activity was measured using ethanol and acetyl-CoA as substrates”; at Atf2-S.c, “AATase activity was measured using ethanol and acetyl-CoA as substrates”; on Atf-K.l it was “AATase activity was measured using ethanol and acetyl-CoA as substrates”.

Values taken from publication PMC4367896, “Microbial host selection affects intracellular localization and activity of alcohol-O-acetyltransferase” (Microbial Cell Factories, 2015).
